Test results: PubChem BioAssay (NCI)
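Cultured in 96-well plates, cells were exposed to test compound for 48 hours across five concentrations. TGI is the concentration that stops growth completely.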

Experiments:
Assay in all cases: NCI tumour cell line growth inhibition, 48 h
PC-3 prostate = tested on: PC-3 prostate
K-562 leukemia = tested on: K-562 leukemia
U251 CNS = tested on: U251 CNS
MDA-N = tested on: MDA-N
TK-10 renal = tested on: TK-10 renal
NCI-H522 lung = tested on: NCI-H522 lung
SNB-19 CNS = tested on: SNB-19 CNS
NCI/ADR-RES ovarian = tested on: NCI/ADR-RES ovarian
T-47D breast = tested on: T-47D breast
DU-145 prostate = tested on: DU-145 prostate
SF-295 CNS = tested on: SF-295 CNS
A498 renal = tested on: A498 renal
LOX IMVI melanoma = tested on: LOX IMVI melanoma
NCI-H23 lung = tested on: NCI-H23 lung
786-0 renal = tested on: 786-0 renal
MDA-MB-435 = tested on: MDA-MB-435
HL-60(TB) leukemia = tested on: HL-60(TB) leukemia
HCT-116 colon = tested on: HCT-116 colon
RXF 393 renal = tested on: RXF 393 renal
IGROV1 ovarian = tested on: IGROV1 ovarian
SK-MEL-5 melanoma = tested on: SK-MEL-5 melanoma
NCI-H226 lung = tested on: NCI-H226 lung
SK-OV-3 ovarian = tested on: SK-OV-3 ovarian
CAKI-1 renal = tested on: CAKI-1 renal
HCC-2998 colon = tested on: HCC-2998 colon
SF-539 CNS = tested on: SF-539 CNS
HT29 colon = tested on: HT29 colon
OVCAR-5 ovarian = tested on: OVCAR-5 ovarian
NCI-H460 lung = tested on: NCI-H460 lung
HOP-92 NSCLC = tested on: HOP-92 NSCLC
RPMI-8226 leukemia = tested on: RPMI-8226 leukemia
HS 578T breast = tested on: HS 578T breast
SK-MEL-28 melanoma = tested on: SK-MEL-28 melanoma
M14 melanoma = tested on: M14 melanoma
UACC-62 melanoma = tested on: UACC-62 melanoma
MDA-MB-231 breast = tested on: MDA-MB-231 breast
OVCAR-4 ovarian = tested on: OVCAR-4 ovarian
SK-MEL-2 melanoma = tested on: SK-MEL-2 melanoma
OVCAR-3 ovarian = tested on: OVCAR-3 ovarian
HCT-15 colon = tested on: HCT-15 colon
SR leukemia = tested on: SR leukemia
MCF7 breast = tested on: MCF7 breast
KM12 colon = tested on: KM12 colon
OVCAR-8 ovarian = tested on: OVCAR-8 ovarian
EKVX NSCLC = tested on: EKVX NSCLC
SW-620 colon = tested on: SW-620 colon
UO-31 renal = tested on: UO-31 renal
MALME-3M melanoma = tested on: MALME-3M melanoma
MOLT-4 leukemia = tested on: MOLT-4 leukemia
HOP-62 NSCLC = tested on: HOP-62 NSCLC
SN12C renal = tested on: SN12C renal
BT-549 breast = tested on: BT-549 breast
UACC-257 melanoma = tested on: UACC-257 melanoma
COLO 205 colon = tested on: COLO 205 colon
A549 NSCLC = tested on: A549 NSCLC
SF-268 CNS = tested on: SF-268 CNS
ACHN renal = tested on: ACHN renal
CCRF-CEM leukemia = tested on: CCRF-CEM leukemia
SNB-75 CNS = tested on: SNB-75 CNS

Cc1ccc(C)c(C(=N)c2ccccc2Cc2ccccc2)c1
TGI (PC-3 prostate): > 100 µM | TGI (K-562 leukemia): 58.7 µM | TGI (U251 CNS): 30.4 µM | TGI (MDA-N): 69.4 µM | TGI (TK-10 renal): > 100 µM | TGI (NCI-H522 lung): 30 µM | TGI (SNB-19 CNS): > 100 µM | TGI (NCI/ADR-RES ovarian): > 100 µM | TGI (T-47D breast): 80.6 µM | TGI (DU-145 prostate): 48.1 µM | TGI (SF-295 CNS): 56 µM | TGI (A498 renal): 53.9 µM | TGI (LOX IMVI melanoma): 31.7 µM | TGI (NCI-H23 lung): > 100 µM | TGI (786-0 renal): 32.2 µM | TGI (MDA-MB-435): 47.2 µM | TGI (HL-60(TB) leukemia): 43.6 µM | TGI (HCT-116 colon): 41.5 µM | TGI (RXF 393 renal): 34.9 µM | TGI (IGROV1 ovarian): > 100 µM | TGI (SK-MEL-5 melanoma): 30.5 µM | TGI (NCI-H226 lung): 33.9 µM | TGI (SK-OV-3 ovarian): 79.1 µM | TGI (CAKI-1 renal): > 100 µM | TGI (HCC-2998 colon): 31.7 µM | TGI (SF-539 CNS): 33.8 µM | TGI (HT29 colon): 33.7 µM | TGI (OVCAR-5 ovarian): 98.3 µM | TGI (NCI-H460 lung): 33.2 µM | TGI (HOP-92 NSCLC): 46.4 µM | TGI (RPMI-8226 leukemia): 35.4 µM | TGI (HS 578T breast): 20.7 µM | TGI (SK-MEL-28 melanoma): 80.1 µM | TGI (M14 melanoma): > 100 µM | TGI (UACC-62 melanoma): 33.4 µM | TGI (MDA-MB-231 breast): 64.2 µM | TGI (OVCAR-4 ovarian): 85.8 µM | TGI (SK-MEL-2 melanoma): 32 µM | TGI (OVCAR-3 ovarian): 27.2 µM | TGI (HCT-15 colon): > 100 µM | TGI (SR leukemia): 41.7 µM | TGI (MCF7 breast): 32.4 µM | TGI (KM12 colon): 56.5 µM | TGI (OVCAR-8 ovarian): > 100 µM | TGI (EKVX NSCLC): 56.8 µM | TGI (SW-620 colon): > 100 µM | TGI (UO-31 renal): > 100 µM | TGI (MALME-3M melanoma): 28 µM | TGI (MOLT-4 leukemia): 38.2 µM | TGI (HOP-62 NSCLC): 61.5 µM | TGI (SN12C renal): 32.2 µM | TGI (BT-549 breast): 83.7 µM | TGI (UACC-257 melanoma): 73.1 µM | TGI (COLO 205 colon): 66.9 µM | TGI (A549 NSCLC): > 100 µM | TGI (SF-268 CNS): 46.2 µM | TGI (ACHN renal): 35.7 µM

CCO/N=C(/CC)c1ccc(Br)s1
TGI (PC-3 prostate): > 100 µM | TGI (K-562 leukemia): > 100 µM | TGI (U251 CNS): > 100 µM | TGI (CCRF-CEM leukemia): > 100 µM | TGI (MDA-N): > 100 µM | TGI (TK-10 renal): > 100 µM | TGI (NCI-H522 lung): > 100 µM | TGI (SNB-19 CNS): > 100 µM | TGI (NCI/ADR-RES ovarian): > 100 µM | TGI (T-47D breast): > 100 µM | TGI (DU-145 prostate): > 100 µM | TGI (SF-295 CNS): > 100 µM | TGI (A498 renal): > 100 µM | TGI (LOX IMVI melanoma): > 100 µM | TGI (NCI-H23 lung): > 100 µM | TGI (786-0 renal): > 100 µM | TGI (MDA-MB-435): > 100 µM | TGI (HL-60(TB) leukemia): > 100 µM | TGI (HCT-116 colon): > 100 µM | TGI (RXF 393 renal): > 100 µM | TGI (IGROV1 ovarian): > 100 µM | TGI (SK-MEL-5 melanoma): > 100 µM | TGI (NCI-H226 lung): > 100 µM | TGI (SK-OV-3 ovarian): > 100 µM | TGI (CAKI-1 renal): > 100 µM | TGI (HCC-2998 colon): > 100 µM | TGI (SF-539 CNS): > 100 µM | TGI (HT29 colon): > 100 µM | TGI (OVCAR-5 ovarian): > 100 µM | TGI (NCI-H460 lung): > 100 µM | TGI (HOP-92 NSCLC): > 100 µM | TGI (HS 578T breast): > 100 µM | TGI (SK-MEL-28 melanoma): > 100 µM | TGI (M14 melanoma): > 100 µM | TGI (UACC-62 melanoma): > 100 µM | TGI (MDA-MB-231 breast): > 100 µM | TGI (OVCAR-4 ovarian): > 100 µM | TGI (SK-MEL-2 melanoma): > 100 µM | TGI (OVCAR-3 ovarian): > 100 µM | TGI (HCT-15 colon): > 100 µM | TGI (SR leukemia): > 100 µM | TGI (MCF7 breast): > 100 µM | TGI (KM12 colon): > 100 µM | TGI (OVCAR-8 ovarian): > 100 µM | TGI (EKVX NSCLC): > 100 µM | TGI (SW-620 colon): > 100 µM | TGI (UO-31 renal): > 100 µM | TGI (SNB-75 CNS): > 100 µM | TGI (MALME-3M melanoma): > 100 µM | TGI (MOLT-4 leukemia): > 100 µM | TGI (HOP-62 NSCLC): > 100 µM | TGI (SN12C renal): > 100 µM | TGI (BT-549 breast): > 100 µM | TGI (UACC-257 melanoma): > 100 µM | TGI (COLO 205 colon): > 100 µM | TGI (A549 NSCLC): > 100 µM | TGI (SF-268 CNS): > 100 µM | TGI (ACHN renal): > 100 µM
